Key:
pIκBa S32 = experiment: Peggy Sue analysis of TMD-8 Ibrutinib resistant lines; assay type: cell-based; settings: idelalisib 420 nM, Compound B 320 nM
Procedure: Lysates were also analyzed by Simple Western using Peggy Sue (ProteinSimple). A standard curve using recombinant proteins was generated to measure PI3K isoform levels on Peggy Sue; data was processed using Compass software (ProteinSimple).
(§1) Total protein expression levels and phosphorylation of PI3K, MAPK, BTK and NF-κB components were determined by Western Blot or Peggy Sue. Cells were treated with idelalisib (420 nM), Compound B (320 nM) or in combination. Protein expression level and phosphoproteomics were determined using Western Blot (p-ERK 1/2, p-AKT S473, total AKT) and Peggy Sue (p-BTK, p-IκBα S32, total IκBα), using procedures as described in Example 3B. Results were quantitated after determining the AUC for each group and normalized to DMSO vehicle control.

[1] = tested on: A20 mutant (TNFAIP3 Q143*) TMD-8 cells; experiment: 96-hour Cell Titer Glo viability assay, Ibrutinib-resistant TMD-8; settings: for EC50: Homo sapiens, TMD8, read-out: EC50, cell viability; for sensitivity in cell viability assay: TMD8^A20-Q143*, 96 h
pERK T202/Y204 = experiment: Western Blot of TMD-8 Ibrutinib resistant lines; assay type: cell-based; settings: idelalisib 420 nM, Compound B 320 nM
Procedure: Western Blot samples were prepared by lysing 10^6 cells for 30 minutes in 150 μL ice-cold lysis buffer. Protease Inhibitor Cocktail (Roche Diagnostics Corp), and phosphatase inhibitor sets 1 and 2 (EMD Millipore) were also added to the lysis buffer (Cell Signaling Technology). Cells were centrifuged at 12.5 g for 10 minutes at 4° C.; supernatant was collected and transferred to new tube. Sample buffer was added to each lysate, and then boiled at 99° C. for 5 minutes. Protein was loaded into an SDS-PAGE gel and run for 2 h at 125V. After electrophoresis, gel was transferred to Immobilon-F membrane using the X Cell Blot. The membrane was then blocked for 1 h at room temperature in blocking buffer and incubated overnight with primary antibodies diluted in a blocking buffer. The following day, the membranes were washed 3× (5 min each) with TBST; secondary antibodies were added and membrane was incubated for 45 minutes at room temperature, followed by 3×TBST (5 min each). Blots were read using Licor Imager. Primary antibodies included p-AKT (S473), p-BTK (Y223), BTK, p-ERK (T202/Y204), ERK, and actin (Cell Signaling Technologies), and secondary antibodies included IRDye-conjugated anti-mouse and anti-rabbit antibodies; LI-COR. Band intensity was measured using LI-COR imager and LI-COR Odyssey software.
as §1

OCI-LY10 cells = experiment: Apoptosis assay, Annexin V flow cytometry; assay type: cell-based; settings: 48 h, Idelalisib = 156 nM, Compound B = 8 nM, DMSO 29
Procedure: (§2) Apoptosis of Idelalisib in combination with Compound B in two DLBCL cell lines, OCI-Ly10 and TMD-8, was also measured. Cells plated at 0.2×10^6 cells/mL in RPMI 1640 supplemented with 20% […] and 1% penicillin and streptomycin. Cells were treated with compound, 156 nM Idelalisib, Compound B and the combination thereof. Control received DMSO at 0.2%. Cells were then incubated at 37 C for 48 hours. Apoptosis was measured using Annexin V/FITC kit, and analyzed by flow cytometry. Apoptosis was also measured using or Annexin V/7ADD kit (Beckman Coulter). Fluorescence was measured by flow cytometry using BD LSRII and the results were analyzed using FACSDiva.

TMD-8 cells = experiment: Apoptosis assay, Annexin V flow cytometry; assay type: cell-based; settings: 48 h, Idelalisib = 156 nM, Compound B = 8 nM, DMSO 21
Procedure: as §2

[2] = tested on: TMD-8 cells with the BTK (C481F) mutation; experiment: 96-hour Cell Titer Glo viability assay, Ibrutinib-resistant TMD-8; set-up: Emax: dose or concentration left out as unconfirmed; settings: for sensitivity in cell viability assay: TMD8^BTK-C481F, 96 h
p-BTK = experiment: Western Blot / Peggy Sue in TMD8^R cells (Example 7); assay type: cell-based; settings: idelalisib 420 nM, Compound B 320 nM
Procedure: (§3) Idelalisib-resistant (TMD8^R) cell line and passage-matched Idelalisib-sensitive (TMD8^S) cell line were generated according to the procedure described in Example 5 above. To characterize the resistant cells, cell viability assays, RNASeq of multidrug resistance (MDR) family of ABC transporter genes (N=33), apoptosis assays, and phosphoprotein analysis were performed. Cell viability was measured using CellTiter-Glo, as described in Example 1A above. Western blot and protein level analysis were performed after treatment with 420 nM idelalisib, 320 nM Compound B and combination thereof, using Peggy Sue (ProteinSimple) automated Western Blot system. Protein concentration (pg/μL) was quantitated using recombinant protein standards. Normalized AUC were determined for each of the treatment groups, normalized to actin. Apoptosis was assessed by propidium iodide and Annexin V/FITC staining and measured by flow cytometry, as described in Example 1A above. Western Blot with anti-p-AKT (S473) antibody and Peggy Sue were used to determine the phosphorylation state of downstream signaling components.

p-AKT S473 = experiment: as above; assay type: cell-based; settings: idelalisib 420 nM, Compound B 320 nM
Procedure: as §3

[3] = A20-Q143* line, normalized to DMSO control, DMSO 1.39
[4] = control line, normalized to DMSO vehicle control
[5] = A20-Q143* line, normalized to DMSO control, DMSO 0.91

Compound	pIκBa S32 (pIκBa S32; [3])	pIκBa S32 (pIκBa S32; [4])	EC50 [1]	sensitivity in cell viability assay [1]	pERK T202/Y204 (pERK T202/Y204; [5])	pERK T202/Y204 (pERK T202/Y204; [4])	% Annexin V+ (OCI-LY10 cells)	% Annexin V+ (TMD-8 cells)	sensitivity in cell viability assay [2]	p-BTK (p-BTK)	p-AKT (p-AKT S473)	Emax ([2]; Homo sapiens, TMD8, read-out: Emax, growth inhibition)
CC#CC(=O)N1CC[C@@H](n2c(=O)n(-c3ccc(Oc4ccccc4)cc3)c3c(N)ncnc32)C1 [Compound B, 6-amino-9-[(3R)-1-(2-butynoyl)-3-pyrrolidinyl]-7-(4-phenoxyphenyl)-7,9-dihydro-8H-purin-8-one]	1.12	0.62	> 10 µM	resistant	0.76	0.35	26%	44%	resistant	inhibited	not	
CCC(Nc1ncnc2[nH]cnc12)c1nc2cccc(F)c2c(=O)n1-c1ccccc1 (centres unmarked) [Idelalisib, 2-(1-((9H-Purin-6-yl)amino)propyl)-5-fluoro-3-phenylquinazolin-4(3H)-one]	0.92	1.09	≥ 4.3 µM	resistant	0.73	0.13	25%	45%	resistant	not	inhibited	14%

Source: patent US20180353512A1, “COMBINATION THERAPIES FOR TREATING B-CELL MALIGNANCIES” (GILEAD SCIENCES, INC., priority 2015, published 2018)
